Our source for the IC50 values is patent publication US11059827B2, “Compounds and compositions useful for treating disorders related to NTRK” (Blueprint Medicines Corporation, priority 2015, dated 2021).

pIC50: −log10 of the molar value.

As a reminder, the pIC50 is the IC50 on a negative log10 scale, so that one unit is a factor of ten. Higher therefore signals a low IC50.

For assay [1], the system named is KM12 wild type colon carcinoma cell line harboring the TPM3-NTRK1 fusion protein. The experiment in a line: NTRK wild type cellular assay (KM12, CellTiter-Glo). Format: cell-based. Particulars: KM12 wild type cells, 72 hr. The procedure:
(§1) NTRK Wild Type and G595R Mutant Cellular Assays Protocol
(§2) KM12 wild type colon carcinoma cell line harboring the TPM3-NTRK1 fusion protein was obtained from the National Cancer Institute (NCI). This line has been previously shown to be dependent upon the NTRK activity derived from the NTRK fusion protein for growth and survival. […] Cells were first plated in 384-well plates at 1000 cells/well in complete media (10% FBS and 1% pen/strep) and incubated overnight at 37° C. Cells were then dosed with test articles at varying concentrations using the Bravo liquid handling system. Concentrations ranged from 25 uM down to […] (4-fold dilutions, 10 concentrations total). Each compound was run in duplicate per plate. DMSO and staurosporine (25 uM) were included on each plate as negative and positive controls for growth inhibition. 72 hr after dosing, assay plates were developed using CellTiter-Glo (Promega) and resultant luminescence was read on the Envision plate reader. IC50 determinations were calculated using a 4-parameter curve fitting algorithm
For orientation: ATP-based viability assays read luminescence as a measure of living cells.

Assay [2] has as its system KM12 Cliff (G595R) cell line. The experiment in a line: NTRK G595R mutant cellular assay (KM12 Cliff, CellTiter-Glo). Format: cell-based. Particulars: KM12 Cliff (G595R) cells, 72 hr. As for the experimental part:
as §1, §2

With `N#Cc1cnn2cc(F)c(N3C[C@@H](F)C[C@@H]3c3cc(F)cc(C(N)=O)c3)nc12` [Compound 15], the pIC50 in assay [1] and in assay [2] was 7.00 to 8.00 in each case.
